Patent publication US4278678A, “Substituted oxy-cyclohexylacetic acid derivatives” (Kaken Chemical Co., Ltd., priority 1978, dated 1981)
Read-outs that look alike come from different tables or passages of the source.

Legend:
[1] = acute toxicity tests in mice (Test 2); conditions: mouse, in vivo; male mice, oral, in olive oil; mortality after 72 hours, area method
Method: In the acute toxicity tests, male mice (weight: 22 to 25 g) were used in groups of 10 each.
Each active ingredient was dissolved in olive oil and the solution was orally administrated in a volume corresponding to the body weight.
LD50 was calculated by the area method from the mortal percent after 72 hours from the administration.

[2] = system: rats with dietary hyperlipidemia; test: The antihyperlipidemic activity in rats with dietary hyperlipidemia (Test 1); assay type: in vivo, Wister type male rats; conditions: Rattus norvegicus, cholesterol diet, 100 mg/kg oral once daily for 4 days, 24 hours after administration
Method: The antihyperlipidemic activity in rats with dietary hyperlipidemia.
In the tests, Wister type male rats (weight: 140 g) were used in groups of 6 each.
A feed containing 2% of cholesterol, 1% of sodium cholate and 5% of coconut oil was given for 4 days to cause hyperlipidemia.
Each active ingredient was suspended in a 1% aqueous solution of Tween 80 (® polyoxyethylene sorbitane monoalkylate) and the suspension was orally administered in a dose of 100 mg/kg once daily for 4 days starting with the supply of the cholesterol supplemented diet.
After 24 hours from the administration, blood was sampled and the concentration of total cholesterols in blood-plasma was measured by the method described in Clinical chemistry Vol. 22 page 393 (1968) and the concentration of triglyceride (neutral fat) was measured by Fletcher method (Clinica Chimica Acta) Vol. 10 page 451 (1964).
As the active ingredients, the compounds of the invention shown in Table and ethyl-α-(p-chlorophenoxy)-isobutylate having the formula [drawing 25] were used.

[3] = total cholesterol in blood-plasma, read-out: Antihypertipidemic activity (%) Cholesterol
[4] = triglyceride (neutral fat), Fletcher method, read-out: Antihypertipidemic activity (%) Triglyceride

Compound: CCOC(=O)C(Oc1ccc(C2CCCCC2)cc1)C1CCCCC1 (stereo not drawn) [Compound 7, Ethyl α-(p-cyclohexylphenoxy)α-cyclohexylacetate]
- LD50 at 72 h [1]: > 3000 mg/kg
- inhibition in vivo at 100 mg/kg [2, 3]: 42.6%
- inhibition in vivo at 100 mg/kg [2, 4]: 51.6%

Compound: CCOC(=O)C(Oc1ccc(C(C)=O)cc1)C1CCCCC1 (stereo not drawn) [Compound 11]
- LD50 at 72 h [1]: > 3000 mg/kg
- inhibition in vivo at 100 mg/kg [2, 3]: 31.8%
- inhibition in vivo at 100 mg/kg [2, 4]: 30.9%

Compound: CCOC(=O)C(Oc1ccc(Oc2ccc(Cl)cc2)cc1)C1CCCCC1 (stereo not drawn) [Compound 17]
- LD50 at 72 h [1]: > 3000 mg/kg
- inhibition in vivo at 100 mg/kg [2, 3]: 45.3%
- inhibition in vivo at 100 mg/kg [2, 4]: 46.5%

Compound: CCOC(=O)C(Oc1c(C)cccc1C)C1CCCCC1 (stereo not drawn) [Compound 4]
- LD50 at 72 h [1]: > 3000 mg/kg
- inhibition in vivo at 100 mg/kg [2, 3]: 38.5%
- inhibition in vivo at 100 mg/kg [2, 4]: 0%

Compound: CCOC(=O)C(Oc1ccc2c(c1)CCCC2)C1CCCCC1 (stereo not drawn) [Compound 10, Ethyl α-(5,6,7,8-tetrahydro-2-naphthoxy)-α-cyclohexylacetate]
- LD50 at 72 h [1]: 2500 mg/kg
- inhibition in vivo at 100 mg/kg [2, 3]: 52.1%
- inhibition in vivo at 100 mg/kg [2, 4]: 44.4%

Compound: CCOC(=O)C(Oc1ccc(C(C)CC)cc1)C1CCCCC1 (stereo not drawn) [Compound 8]
- LD50 at 72 h [1]: > 3000 mg/kg
- inhibition in vivo at 100 mg/kg [2, 3]: 36.7%
- inhibition in vivo at 100 mg/kg [2, 4]: 17.1%

Compound: CCOC(=O)C(Oc1ccc(OC)cc1)C1CCCCC1 (stereo not drawn) [Compound 5]
- LD50 at 72 h [1]: > 3000 mg/kg
- inhibition in vivo at 100 mg/kg [2, 3]: 39%
- inhibition in vivo at 100 mg/kg [2, 4]: 8.9%

Compound: CCOC(=O)C(Oc1ccc(Cl)cc1)C1CCCCC1 (stereo not drawn) [Compound 3]
- LD50 at 72 h [1]: > 3000 mg/kg
- inhibition in vivo at 100 mg/kg [2, 3]: 43.3%
- inhibition in vivo at 100 mg/kg [2, 4]: 31.5%

Compound: CCOC(=O)C(Oc1cccc(C(C)=O)c1)C1CCCCC1 (stereo not drawn) [Compound 12]
- LD50 at 72 h [1]: > 3000 mg/kg
- inhibition in vivo at 100 mg/kg [2, 3]: 14.3%
- inhibition in vivo at 100 mg/kg [2, 4]: 11.5%

Compound: CCOC(=O)C(Oc1cccnc1)C1CCCCC1 (stereo not drawn) [Compound 2]
- LD50 at 72 h [1]: 2500 mg/kg
- inhibition in vivo at 100 mg/kg [2, 3]: 0%
- inhibition in vivo at 100 mg/kg [2, 4]: 45%

Compound: O=C(O)C(Oc1ccc(C2CCCCC2)cc1)C1CCCCC1 (stereo not drawn) [Compound 19, α-(p-cyclohexylphenoxy)α-cyclohexylacetic acid]
- LD50 at 72 h [1]: > 3000 mg/kg
- inhibition in vivo at 100 mg/kg [2, 3]: 35.8%
- inhibition in vivo at 100 mg/kg [2, 4]: 32.4%

Compound: CCOC(=O)C(Oc1cccc(C(F)(F)F)c1)C1CCCCC1 (stereo not drawn) [Compound 1]
- LD50 at 72 h [1]: 2500 mg/kg
- inhibition in vivo at 100 mg/kg [2, 3]: 12.1%
- inhibition in vivo at 100 mg/kg [2, 4]: 49.3%

Compound: CCOC(=O)C(Oc1ccc(-c2ccccc2)cc1)C1CCCCC1 (stereo not drawn) [Compound 6, Ethyl α-(p-phenylphenoxy)α-cyclohexylacetate]
- LD50 at 72 h [1]: > 3000 mg/kg
- inhibition in vivo at 100 mg/kg [2, 3]: 52.3%
- inhibition in vivo at 100 mg/kg [2, 4]: 44%

Compound: CCOC(=O)C(Oc1ccc(CC)cc1)C1CCCCC1 (stereo not drawn) [Compound 14, Ethyl α-(p-ethylphenoxy)α-cyclohexylacetate]
- LD50 at 72 h [1]: > 3000 mg/kg
- inhibition in vivo at 100 mg/kg [2, 3]: 42.6%
- inhibition in vivo at 100 mg/kg [2, 4]: 64.8%

Compound: CCOC(=O)C(Oc1ccc(Cl)c2ccccc12)C1CCCCC1 (stereo not drawn) [Compound 15]
- LD50 at 72 h [1]: 2500 mg/kg
- inhibition in vivo at 100 mg/kg [2, 3]: 0%
- inhibition in vivo at 100 mg/kg [2, 4]: 53%

Compound: CCOC(=O)C(Oc1ccc(C(C)(C)c2ccccc2)cc1)C1CCCCC1 (stereo not drawn) [Compound 9]
- LD50 at 72 h [1]: > 3000 mg/kg
- inhibition in vivo at 100 mg/kg [2, 3]: 40.3%
- inhibition in vivo at 100 mg/kg [2, 4]: 28.1%

Compound: CCOC(=O)C(Oc1ccc(-c2ccc(Cl)cc2)cc1)C1CCCCC1 (stereo not drawn) [Compound 18]
- LD50 at 72 h [1]: > 3000 mg/kg
- inhibition in vivo at 100 mg/kg [2, 3]: 43.7%
- inhibition in vivo at 100 mg/kg [2, 4]: 40.5%

Compound: CCOC(=O)C(Oc1ccc(Oc2ccccc2)cc1)C1CCCCC1 (stereo not drawn) [Compound 16, ethyl α-(p-phenoxyphenoxy)α-cyclohexylacetate]
- LD50 at 72 h [1]: > 3000 mg/kg
- inhibition in vivo at 100 mg/kg [2, 3]: 40.8%
- inhibition in vivo at 100 mg/kg [2, 4]: 38.7%

Compound: CCOC(=O)C(Oc1cccc(C)c1)C1CCCCC1 (stereo not drawn) [Compound 13]
- LD50 at 72 h [1]: > 3000 mg/kg
- inhibition in vivo at 100 mg/kg [2, 3]: 7.9%
- inhibition in vivo at 100 mg/kg [2, 4]: 59.7%
